Data published in ChEMBL document CHEMBL1131037, “Structure-based design, synthesis, and biological evaluation of irreversible human rhinovirus 3C protease inhibitors. 2. Peptide structure-activity studies” (J Med Chem, 1998).

Key:
rhinovirus B14 [1] = assay: Antiviral activity against HRV-14 in cell culture; assay type: functional, organism-based; details: Rhinovirus B
[2] = molecular target: T1, Human rhinovirus A protease (Human rhinovirus sp.) (UniProt Q4U254); assay: Binding affinity on human Rhinovirus 3C protease (rhinovirus serotype 14)
T1 sequence (whole entry): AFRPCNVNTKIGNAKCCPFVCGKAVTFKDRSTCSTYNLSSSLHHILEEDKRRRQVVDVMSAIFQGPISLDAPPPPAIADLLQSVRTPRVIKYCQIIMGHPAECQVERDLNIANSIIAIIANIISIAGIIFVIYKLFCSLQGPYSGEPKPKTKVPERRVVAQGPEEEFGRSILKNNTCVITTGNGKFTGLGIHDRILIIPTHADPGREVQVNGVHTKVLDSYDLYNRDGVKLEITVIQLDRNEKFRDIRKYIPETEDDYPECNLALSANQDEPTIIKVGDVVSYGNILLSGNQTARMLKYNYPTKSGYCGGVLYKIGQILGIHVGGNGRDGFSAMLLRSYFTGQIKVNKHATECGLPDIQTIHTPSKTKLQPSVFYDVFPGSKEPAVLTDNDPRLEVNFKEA

rhinovirus B14 [3] = assay: Cytotoxic activity against HRV-14 in cell culture; assay type: functional, rhinovirus 14; details: Rhinovirus B

Structure (SMILES)	EC50 (rhinovirus B14 [1])	K obs / 1 [2]	CC50 (rhinovirus B14 [3])
CCOC(=O)/C=C/[C@H](CCC(N)=O)NC(=O)[C@H](Cc1ccccc1)NC(=O)[C@H](CC(C)C)NC(C)=O	14 µM	3700 M⁻¹ s⁻¹	> 320 µM
CCOC(=O)/C=C/[C@H](CCC(N)=O)NC(=O)[C@H](Cc1ccccc1)NC(=O)[C@H](CC(C)C)NC(=O)OC1CCCCC1	7.6 µM	15500 M⁻¹ s⁻¹	> 100 µM
CCOC(=O)/C=C/[C@H](CCC(N)=O)NC(=O)[C@H](Cc1ccc(CO)cc1)NC(=O)[C@H](CC(C)C)NC(=O)OCc1ccccc1	0.55 µM	82300 M⁻¹ s⁻¹	> 320 µM
CCOC(=O)/C=C/[C@H](CCC(N)=O)NC(=O)[C@H](Cc1ccccc1)NC(=O)[C@H](CC(C)C)NC(=O)CO	30 µM	2100 M⁻¹ s⁻¹	> 320 µM
CCOC(=O)/C=C/[C@H](CCC(N)=O)NC(=O)[C@H](Cc1ccccc1)NC(=O)[C@H](CC(C)C)NC(=O)OC	1.3 µM	9100 M⁻¹ s⁻¹	> 320 µM
CCOC(=O)/C=C/[C@H](CCC(N)=O)NC(=O)[C@H](Cc1ccccc1)NC(=O)[C@@H](NC(=O)OCc1ccccc1)c1ccccc1	–	20700 M⁻¹ s⁻¹	–
CCOC(=O)/C=C/[C@H](CCC(N)=O)NC(=O)[C@H](Cc1ccc(C)cc1)NC(=O)[C@@H](NC(=O)SC1CCCC1)C(C)(C)C	0.056 µM	–	–
CCOC(=O)/C=C/[C@H](CCC(N)=O)NC(=O)[C@H](Cc1ccc(O)cc1)NC(=O)[C@H](CC(C)C)NC(=O)OCc1ccccc1	5.3 µM	11300 M⁻¹ s⁻¹	> 320 µM
CCOC(=O)/C=C/[C@H](CCC(N)=O)NC(=O)[C@H](Cc1ccccc1)NC(=O)[C@H](CC(C)C)NC(=O)SC	1.1 µM	69800 M⁻¹ s⁻¹	> 320 µM
CCOC(=O)/C=C/[C@H](CCC(N)=O)NC(=O)[C@H](Cc1ccccc1)NC(=O)[C@H](CC(=O)O)NC(=O)OCc1ccccc1	2.4 µM	35000 M⁻¹ s⁻¹	> 320 µM
CCOC(=O)/C=C/[C@H](CCC(N)=O)NC(=O)[C@H](Cc1ccc(OP(=O)(O)O)cc1)NC(=O)[C@H](CC(C)C)NC(=O)OCc1ccccc1	14 µM	1200 M⁻¹ s⁻¹	> 320 µM
CCOC(=O)/C=C/[C@H](CCC(N)=O)NC(=O)[C@H](Cc1ccccc1)NC(=O)[C@H](CC(C)C)NC(=O)C(C)(C)C	1.8 µM	8200 M⁻¹ s⁻¹	> 100 µM
CCOC(=O)/C=C/[C@H](CCC(N)=O)NC(=O)[C@H](Cc1ccccc1)NC(=O)[C@H](CC(C)C)NC(=O)NCc1ccccc1	> 100 µM	6900 M⁻¹ s⁻¹	> 100 µM
CCOC(=O)/C=C/[C@H](CCC(N)=O)NC(=O)[C@H](Cc1ccccc1)NC(=O)[C@H](CC(C)C)NC(=O)CCO	19 µM	4500 M⁻¹ s⁻¹	> 320 µM
CCOC(=O)/C=C/[C@H](CCC(C)=O)NC(=O)[C@H](Cc1ccccc1)NC(=O)[C@H](CC(C)C)NC(=O)OCc1ccccc1	1.6 µM	1400 M⁻¹ s⁻¹	> 100 µM
CCOC(=O)/C=C/[C@H](CCC(N)=O)NC(=O)[C@H](Cc1ccccc1)NC(=O)CNC(=O)OCc1ccccc1	5.6 µM	3800 M⁻¹ s⁻¹	> 320 µM
CCOC(=O)/C=C/[C@H](CCC(=O)N(C)C)NC(=O)[C@H](Cc1ccccc1)NC(=O)[C@H](CC(C)C)NC(=O)OCc1ccccc1	4 µM	60 M⁻¹ s⁻¹	> 100 µM
CCOC(=O)/C=C/[C@H](CCC(=O)O)NC(=O)[C@H](Cc1ccccc1)NC(=O)[C@H](CC(C)C)NC(=O)OCc1ccccc1	14 µM	500 M⁻¹ s⁻¹	> 100 µM
CCOC(=O)/C=C/[C@H](CCC(N)=O)NC(=O)[C@H](C)NC(=O)[C@H](CC(C)C)NC(=O)OCc1ccccc1	20 µM	1300 M⁻¹ s⁻¹	> 320 µM
CCOC(=O)/C=C/[C@H](CCC(N)=O)NC(=O)[C@H](Cc1ccc(COC)cc1)NC(=O)[C@H](CC(C)C)NC(=O)OCc1ccccc1	39 µM	7100 M⁻¹ s⁻¹	> 320 µM
CCOC(=O)/C=C/[C@H](CCC(N)=O)NC(=O)[C@H](Cc1ccccc1)NC(=O)[C@H](CCCCN)NC(=O)OCc1ccccc1	205 µM	18600 M⁻¹ s⁻¹	> 320 µM
CCOC(=O)/C=C/[C@H](CCC(N)=O)NC(=O)[C@H](Cc1ccccc1)NC(=O)[C@@H](NC(=O)OCc1ccccc1)[C@@H](C)CC	0.79 µM	31700 M⁻¹ s⁻¹	> 100 µM
CCOC(=O)/C=C/[C@H](CCC(N)=O)NC(=O)[C@H](Cc1ccccc1)NC(=O)[C@H](CCc1ccccc1)NC(=O)OCc1ccccc1	0.25 µM	57000 M⁻¹ s⁻¹	> 320 µM
CCOC(=O)/C=C/[C@H](CCC(N)=O)NC(=O)[C@H](Cc1ccccc1)NC(=O)[C@H](C)NC(=O)OCc1ccccc1	2 µM	11300 M⁻¹ s⁻¹	> 320 µM

Structure (SMILES)	EC50 (rhinovirus B14 [1])	K obs / 1 [2]	CC50 (rhinovirus B14 [3])
CCOC(=O)/C=C/[C@H](CCC(N)=O)NC(=O)[C@H](Cc1ccc(OCC)cc1)NC(=O)[C@H](CC(C)C)NC(=O)OCc1ccccc1	> 320 µM	4200 M⁻¹ s⁻¹	> 320 µM
CCOC(=O)/C=C/[C@H](CCC(N)=O)NC(=O)[C@H](Cc1ccccc1)NC(=O)[C@@H](NC(=O)OCc1ccccc1)[C@H](C)O	1.8 µM	38900 M⁻¹ s⁻¹	> 320 µM
CCOC(=O)/C=C/[C@H](CCC(N)=O)NC(=O)[C@H](CC(C)C)NC(=O)[C@H](CC(C)C)NC(=O)OCc1ccccc1	5.4 µM	2300 M⁻¹ s⁻¹	> 320 µM
CCOC(=O)/C=C/[C@H](CCC(N)=O)NC(=O)[C@H](Cc1ccccc1)NC(=O)[C@@H](NC(=O)OCc1ccccc1)C(C)(C)CO	1.3 µM	40000 M⁻¹ s⁻¹	> 100 µM
CCOC(=O)/C=C/[C@H](CCC(N)=O)NC(=O)OCc1ccccc1	> 100 µM	4.5 M⁻¹ s⁻¹	> 100 µM
CCOC(=O)/C=C/[C@H](CCC(N)=O)NC(=O)[C@H](Cc1ccccc1)NC(=O)[C@H](CC(C)C)NC(=O)C(C)C	1 µM	18800 M⁻¹ s⁻¹	> 320 µM
CCOC(=O)/C=C/[C@H](CCC(N)=O)NC(=O)[C@H](Cc1ccccc1)NC(=O)[C@H](CC(C)C)NC(=O)[C@@H](NC(C)=O)[C@@H](C)O	> 100 µM	4600 M⁻¹ s⁻¹	> 100 µM
CCOC(=O)/C=C/[C@H](CCC(N)=O)NC(=O)[C@H](Cc1ccccc1)NC(=O)[C@H](CC(C)C)NC(=O)c1ccccc1	5.2 µM	9600 M⁻¹ s⁻¹	> 320 µM
CCOC(=O)/C=C/[C@H](CCC(N)=O)NC(=O)[C@H](Cc1ccc(C(N)=O)cc1)NC(=O)[C@H](CC(C)C)NC(=O)OCc1ccccc1	> 177 µM	9600 M⁻¹ s⁻¹	177 µM
CCOC(=O)/C=C/[C@H](CCC(N)=O)NC(=O)[C@H](Cc1ccccc1)NC(=O)[C@H](CSC)NC(=O)OCc1ccccc1	0.18 µM	35200 M⁻¹ s⁻¹	> 100 µM
CCOC(=O)/C=C/[C@H](CNC(N)=O)NC(=O)[C@H](Cc1ccccc1)NC(=O)[C@H](CC(C)C)NC(=O)OCc1ccccc1	32 µM	3500 M⁻¹ s⁻¹	> 100 µM
CCOC(=O)/C=C/[C@H](CCC(N)=O)NC(=O)[C@H](Cc1ccccc1)NC(=O)[C@H](CC(C)C)NC(=O)C1CCCC1	0.6 µM	23700 M⁻¹ s⁻¹	> 320 µM
CCOC(=O)/C=C/[C@H](CCC(N)=O)NC(=O)[C@H](CSCC)NC(=O)[C@H](CC(C)C)NC(=O)OCc1ccccc1	10 µM	3000 M⁻¹ s⁻¹	> 320 µM
CCOC(=O)/C=C/[C@H](CCC(N)=O)NC(=O)[C@H](Cc1ccccc1)NC(=O)[C@H](CC(C)C)NC(=O)OCc1ccccc1	0.54 µM	–	> 320 µM
CCOC(=O)/C=C/[C@H](CCC(N)=O)NC(=O)[C@H](Cc1ccccc1)NC(=O)[C@H](CO)NC(=O)OCc1ccccc1	1.8 µM	39900 M⁻¹ s⁻¹	> 320 µM
CCOC(=O)/C=C/[C@H](CCC(N)=O)NC(=O)[C@H](Cc1ccccc1)NC(=O)[C@@H](NC(=O)OCc1ccccc1)C(C)C	0.38 µM	62500 M⁻¹ s⁻¹	> 320 µM
CCOC(=O)/C=C/[C@H](CNC(C)=O)NC(=O)[C@H](Cc1ccccc1)NC(=O)[C@H](CC(C)C)NC(=O)OCc1ccccc1	2.2 µM	800 M⁻¹ s⁻¹	> 320 µM
CCOC(=O)/C=C/[C@H](CCC(N)=O)NC(=O)[C@H](Cc1ccccc1)NC(=O)[C@H](CC(C)C)NC(=O)OCc1ccccc1C	1 µM	41800 M⁻¹ s⁻¹	> 100 µM
CCOC(=O)/C=C/[C@H](COC(N)=O)NC(=O)[C@H](Cc1ccccc1)NC(=O)[C@H](CC(C)C)NC(=O)OCc1ccccc1	1.6 µM	5600 M⁻¹ s⁻¹	> 320 µM
CCOC(=O)/C=C/[C@H](CCC(N)=O)NC(=O)[C@H](CCC(=O)O)NC(=O)[C@H](CC(C)C)NC(=O)OCc1ccccc1	> 320 µM	200 M⁻¹ s⁻¹	> 320 µM
CCOC(=O)/C=C/[C@H](CCC(=O)NC(c1ccccc1)(c1ccccc1)c1ccccc1)NC(=O)[C@H](Cc1ccccc1)NC(=O)[C@H](CC(C)C)NC(=O)OCc1ccccc1	100 µM	0 M⁻¹ s⁻¹	> 320 µM
CCOC(=O)/C=C/[C@H](CCC(N)=O)NC(=O)[C@H](Cc1ccccc1)NC(=O)[C@H](CC(C)C)NC(=O)OC(C)(C)C	4.5 µM	700 M⁻¹ s⁻¹	> 100 µM
CCOC(=O)/C=C/[C@H](CCC(N)=O)NC(=O)[C@H](Cc1ccccc1)NC(=O)OCc1ccccc1	5.6 µM	400 M⁻¹ s⁻¹	> 100 µM
CCOC(=O)/C=C/[C@H](CCC(C)O)NC(=O)[C@H](Cc1ccccc1)NC(=O)[C@H](CC(C)C)NC(=O)OCc1ccccc1 (some centres undefined)	> 100 µM	0 M⁻¹ s⁻¹	> 100 µM
